In ChEMBL document CHEMBL5465560, “Selectivity Literature for EUbOPEN Chemogenomic Library” (2024):

How the values were obtained:
[1] = target: T1, Ephrin type-B receptor 4 (Homo sapiens) (UniProt P54760); assay: Selectivity interaction (KinomeScan (DiscoverX)) EUB0000229b EPHB4; settings: at 10 µM
T1 sequence (whole entry): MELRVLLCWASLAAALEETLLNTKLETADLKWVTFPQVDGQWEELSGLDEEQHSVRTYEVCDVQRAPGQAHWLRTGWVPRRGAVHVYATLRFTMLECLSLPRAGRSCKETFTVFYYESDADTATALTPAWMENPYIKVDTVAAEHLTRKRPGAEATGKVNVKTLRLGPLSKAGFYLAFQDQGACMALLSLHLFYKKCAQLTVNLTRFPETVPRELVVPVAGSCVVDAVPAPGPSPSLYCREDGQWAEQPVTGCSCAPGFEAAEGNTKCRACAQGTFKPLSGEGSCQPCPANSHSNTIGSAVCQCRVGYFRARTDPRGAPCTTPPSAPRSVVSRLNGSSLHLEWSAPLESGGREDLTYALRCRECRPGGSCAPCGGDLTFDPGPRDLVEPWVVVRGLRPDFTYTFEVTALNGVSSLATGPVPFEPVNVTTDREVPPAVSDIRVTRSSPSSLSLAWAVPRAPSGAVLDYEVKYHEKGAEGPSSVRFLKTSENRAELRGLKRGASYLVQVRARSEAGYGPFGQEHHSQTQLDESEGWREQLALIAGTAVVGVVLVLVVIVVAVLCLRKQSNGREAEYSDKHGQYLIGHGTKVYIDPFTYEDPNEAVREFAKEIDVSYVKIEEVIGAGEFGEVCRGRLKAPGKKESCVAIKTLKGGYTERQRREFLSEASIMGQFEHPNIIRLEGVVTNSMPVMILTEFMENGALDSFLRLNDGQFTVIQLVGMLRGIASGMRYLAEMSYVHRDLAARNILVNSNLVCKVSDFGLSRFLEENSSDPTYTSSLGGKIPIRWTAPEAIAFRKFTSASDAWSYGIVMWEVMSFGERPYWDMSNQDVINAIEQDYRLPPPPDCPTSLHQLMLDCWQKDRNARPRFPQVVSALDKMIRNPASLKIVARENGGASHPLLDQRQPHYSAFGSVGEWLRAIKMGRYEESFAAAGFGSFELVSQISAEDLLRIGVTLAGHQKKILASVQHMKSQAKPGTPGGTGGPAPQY

[2] = target: Cyclin-dependent kinase-like 3 (Homo sapiens) (UniProt Q8IVW4); assay: Selectivity interaction (KinomeScan (DiscoverX)) EUB0000595a CDKL3; settings: at 10 µM
Chain of Cyclin-dependent kinase-like 3 (Homo sapiens) (Q8IVW4 whole entry, looked up, the tested form may be a part): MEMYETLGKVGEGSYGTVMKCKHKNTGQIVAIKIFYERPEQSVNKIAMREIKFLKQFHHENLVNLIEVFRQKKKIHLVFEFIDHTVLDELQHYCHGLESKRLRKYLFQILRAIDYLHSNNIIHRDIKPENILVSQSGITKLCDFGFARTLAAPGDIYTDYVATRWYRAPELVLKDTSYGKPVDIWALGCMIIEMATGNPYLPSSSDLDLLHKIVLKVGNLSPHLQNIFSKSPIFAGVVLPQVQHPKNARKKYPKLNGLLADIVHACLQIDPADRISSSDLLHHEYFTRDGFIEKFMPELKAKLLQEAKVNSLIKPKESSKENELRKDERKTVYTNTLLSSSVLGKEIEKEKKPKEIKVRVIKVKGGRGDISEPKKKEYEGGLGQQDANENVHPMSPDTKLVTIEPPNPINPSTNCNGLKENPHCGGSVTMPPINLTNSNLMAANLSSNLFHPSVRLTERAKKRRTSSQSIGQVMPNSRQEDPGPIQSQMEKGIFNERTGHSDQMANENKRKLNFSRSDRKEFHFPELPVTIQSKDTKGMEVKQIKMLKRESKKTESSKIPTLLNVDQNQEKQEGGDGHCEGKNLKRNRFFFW

[3] = target: T2, Phosphatidylinositol 3-kinase C2 domain-containing subunit gamma (Homo sapiens) (UniProt O75747); assay: Selectivity interaction (KinomeScan (DiscoverX)) EUB0000595a PIK3C2G; settings: at 10 µM
T2 sequence (whole entry): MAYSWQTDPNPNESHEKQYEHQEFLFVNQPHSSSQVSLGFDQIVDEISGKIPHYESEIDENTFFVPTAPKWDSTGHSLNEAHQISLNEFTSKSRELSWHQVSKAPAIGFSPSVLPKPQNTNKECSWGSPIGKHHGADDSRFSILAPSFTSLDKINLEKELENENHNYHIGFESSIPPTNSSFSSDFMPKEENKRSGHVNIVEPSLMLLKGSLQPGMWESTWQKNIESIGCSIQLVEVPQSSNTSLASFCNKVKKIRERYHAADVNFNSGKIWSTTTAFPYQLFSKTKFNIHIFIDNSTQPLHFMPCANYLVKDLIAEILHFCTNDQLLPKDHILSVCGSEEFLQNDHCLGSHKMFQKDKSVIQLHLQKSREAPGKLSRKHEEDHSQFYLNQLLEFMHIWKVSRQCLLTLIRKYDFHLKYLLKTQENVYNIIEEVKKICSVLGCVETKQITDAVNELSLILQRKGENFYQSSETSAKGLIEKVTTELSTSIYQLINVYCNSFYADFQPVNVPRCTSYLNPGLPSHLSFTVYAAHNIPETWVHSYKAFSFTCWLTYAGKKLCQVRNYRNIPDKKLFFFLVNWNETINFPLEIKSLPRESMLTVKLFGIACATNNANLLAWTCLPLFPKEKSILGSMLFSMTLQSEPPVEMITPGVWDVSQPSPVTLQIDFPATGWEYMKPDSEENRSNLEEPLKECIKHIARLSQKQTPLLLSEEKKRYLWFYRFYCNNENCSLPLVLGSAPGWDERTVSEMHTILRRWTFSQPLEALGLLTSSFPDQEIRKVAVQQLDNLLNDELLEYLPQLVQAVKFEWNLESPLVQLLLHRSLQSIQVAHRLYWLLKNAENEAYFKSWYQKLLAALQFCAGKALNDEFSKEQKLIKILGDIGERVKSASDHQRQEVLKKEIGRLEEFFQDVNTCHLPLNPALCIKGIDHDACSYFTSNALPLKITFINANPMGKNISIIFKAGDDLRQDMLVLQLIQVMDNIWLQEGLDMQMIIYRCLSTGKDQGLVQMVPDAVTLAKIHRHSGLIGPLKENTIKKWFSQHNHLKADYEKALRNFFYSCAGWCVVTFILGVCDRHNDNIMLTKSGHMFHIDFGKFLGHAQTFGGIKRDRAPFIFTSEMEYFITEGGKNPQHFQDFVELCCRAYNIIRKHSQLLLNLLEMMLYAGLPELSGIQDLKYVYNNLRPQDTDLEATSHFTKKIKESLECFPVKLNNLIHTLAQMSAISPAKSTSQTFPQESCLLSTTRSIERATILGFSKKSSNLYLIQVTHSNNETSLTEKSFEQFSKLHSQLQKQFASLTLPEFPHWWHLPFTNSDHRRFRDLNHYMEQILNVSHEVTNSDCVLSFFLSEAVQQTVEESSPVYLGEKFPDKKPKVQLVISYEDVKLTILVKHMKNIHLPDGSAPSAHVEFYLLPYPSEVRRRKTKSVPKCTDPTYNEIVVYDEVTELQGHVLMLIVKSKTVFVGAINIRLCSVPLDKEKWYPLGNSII

[4] = target: Serine/threonine-protein kinase pim-1 (Homo sapiens, UniProt P11309); assay: Selectivity interaction (KinomeScan (DiscoverX)) EUB0000695a PIM1; settings: at 100 nM
Chain of Serine/threonine-protein kinase pim-1 (P11309 whole entry, looked up): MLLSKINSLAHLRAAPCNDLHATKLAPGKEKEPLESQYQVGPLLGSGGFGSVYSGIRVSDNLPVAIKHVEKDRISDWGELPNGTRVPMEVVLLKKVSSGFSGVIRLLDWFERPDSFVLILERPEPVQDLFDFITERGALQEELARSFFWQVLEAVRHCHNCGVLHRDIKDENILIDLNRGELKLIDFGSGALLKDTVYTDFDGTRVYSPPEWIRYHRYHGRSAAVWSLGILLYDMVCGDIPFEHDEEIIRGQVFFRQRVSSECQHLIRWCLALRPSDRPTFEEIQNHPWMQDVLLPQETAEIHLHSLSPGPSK

[5] = target: Tyrosine-protein kinase BTK (Homo sapiens, UniProt Q06187); assay: Selectivity interaction (Upstate Kinase Profiler service (Millipore)) EUB0000056c BTK; settings: at 1 µM
Chain of Tyrosine-protein kinase BTK (Q06187 whole entry): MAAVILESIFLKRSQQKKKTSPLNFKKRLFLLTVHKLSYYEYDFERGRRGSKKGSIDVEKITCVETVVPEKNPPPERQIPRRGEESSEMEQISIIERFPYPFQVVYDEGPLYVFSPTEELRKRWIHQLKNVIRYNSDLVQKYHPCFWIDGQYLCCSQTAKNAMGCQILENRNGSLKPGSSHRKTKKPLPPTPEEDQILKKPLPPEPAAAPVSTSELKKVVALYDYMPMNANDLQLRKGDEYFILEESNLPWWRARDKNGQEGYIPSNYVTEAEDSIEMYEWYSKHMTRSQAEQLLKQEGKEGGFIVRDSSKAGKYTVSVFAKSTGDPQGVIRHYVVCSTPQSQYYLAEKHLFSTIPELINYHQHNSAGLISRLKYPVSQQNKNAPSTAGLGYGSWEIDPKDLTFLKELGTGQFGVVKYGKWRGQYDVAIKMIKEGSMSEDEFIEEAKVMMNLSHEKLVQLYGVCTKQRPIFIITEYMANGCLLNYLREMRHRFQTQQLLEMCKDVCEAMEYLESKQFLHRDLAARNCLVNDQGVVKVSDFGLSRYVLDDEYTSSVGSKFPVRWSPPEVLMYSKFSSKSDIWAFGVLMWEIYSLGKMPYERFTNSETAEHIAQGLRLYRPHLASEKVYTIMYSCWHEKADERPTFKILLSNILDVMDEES

With `COc1cc(N(C)c2ccnc3ccc(C(F)(F)F)cc23)cc(OC)c1OC` the % binding [1] was 100%.

In the case of `COCC(=O)NC/C=C/c1ccc2ncnc(Nc3ccc(Oc4ccc(C)nc4)c(C)c3)c2c1` [CP-724714], the % of control [2] is reported as 100% and the % of control [3] is reported as 24%.

In the case of `Cc1cc(F)c(C(=O)Nc2cccc(-c3nncn3C(C)C)n2)cc1-n1cnc(C2CC2)c1`, the % of control [4] is reported as 100%.

Compound `Cc1ccc(-c2ccc3c(ccc4sc5c(c43)NC[C@@H](C)NC5=O)n2)cn1` has a % of inhibition [5] of 6%.
